Assay results taken from patent US20080193549A1, “Hoki Fish Liver Oil, Fractions Thereof And Therapeutic Uses” (Otago Innovation Limited, priority 2004, published 2008).

Columns and labels:
activated neutrophils = assay: neutrophil activation: superoxide production (WST-1); assay type: cell-based, rat; conditions: 100 μg/ml, positive control
Description: The in vitro anti-inflammatory screening assay used in this investigation involved determining the effect of a test material on activated neutrophils. The production of superoxide was measured. Neutrophils were prepared from fresh rat blood and diluted with phosphate-buffered saline (PBS) and adjusted to a concentration of 10^7 cells per ml. The purity of the preparation was 95% or higher. The test sample was pre-incubated with a cell suspension at 37° C. for 15 minutes in wells of a 96 well culture plate. Then catalase and WST-1 dye reagent were added to each incubate (including controls). Each was then activated with phorbol myristate acetate (100 ng/ml). After incubation for 1 hr at 37° C. the reaction was stopped and the level of superoxide produced from oxidation of the dye WST by the superoxide in each well of the plate determined calorimetrically at 450 nm. As a positive control, triplicate wells with aspirin (100 μg/ml) were assayed. Each sample was assessed at three different concentrations.

rat monocytes = assay: macrophage assay: conversion of monocytes to macrophages (nitric oxide, Griess); assay type: cell-based
Description: A diluent composed of RPMI culture media containing 10% foetal calf serum (FCS) was prepared. A density gradient barrier was prepared by mixing a working solution [Optiprep: diluent, 2:1, v/v] with further diluent in a ratio of 2.3 to 5.0. The density of 1.076 g/ml is required for isolating rat monocytes. Freshly isolated rat blood was cooled to 4° C. 5 ml of the density gradient was layered over 5 ml of the blood and 5 ml of diluent was then layered gently on top. After centrifuging at 700 g for 30 min at 4° C., the monocytes were collected from the top of the 1.076 g/ml layer and diluted with 2 volumes of diluent and the pellet was gently resuspended in Hanks Balanced Salt Solution (HBSS). The cell concentration and the relative purity were determined. 500 μl Aliquots of cell suspension were used. […] 10 μl of LPS (5 mg/ml) was then added to all tubes, except the control, to give a final concentration of LPS of approximately 20 μg/ml. The cells were incubated overnight at 37° C. and then centrifuged at 12,000 g (4° C.) for 5 min. The supernatants were collected and aliquots of these were then assayed in duplicate for the concentration of nitric oxide (NO) by the Griess reagent procedure using a kit (Sigma, St Louis, USA).

| Compound | Absorbance units (superoxide production) (activated neutrophils) [Absorbance units] | inhibition at 100 µg/mL (activated neutrophils; Rattus norvegicus, Neutrophil) [%] | % Inhibition of conversion of monocytes to macrophages (NO production) (rat monocytes; 2.5 μM) [%] | Absorbance units (nitric oxide production) (rat monocytes; 2.5 μM) [Absorbance units] | % Inhibition of conversion of monocytes to macrophages (NO production) (rat monocytes; 5 μM) [%] | Absorbance units (nitric oxide production) (rat monocytes; 5 μM) [Absorbance units] |
| --- | --- | --- | --- | --- | --- | --- |
| CC(=O)Oc1ccccc1C(=O)O [Aspirin, aspirin] | 0.3095 | 46.9 | – | – | – | – |
| CNC(=N)NCCC[C@H](N)C(=O)O [L-NMMA] | – | – | 44.94 | 1.568 | 75.07 | 0.710 |
